viability, T/C and IC50 data for nine compounds are collected here from PubChem BioAssay AID1963846 (Molecular Pharmacology Branch, DTP, NCI, 2024).

The assay deals with 454973-116-R2-J3-PDC complex spheroid viability. The assay can be described thus: Anticancer human tumor 454973-116-R2-J3-PDC patient-derived pancreatic carcinoma cell line growth inhibition [POLQ]. As to conditions: for viability, T/C: stronger effect = lower value. The method, then:
Multicellular complex tumor spheroid response to Polymerase (POL) inhibitors (novobiocin, ART-558, RP6685) in combination with a variety of drugs and investigational agents in selected tumor cell lines
The POL inhibitors (novobiocin, ART-558, and RP6685) were evaluated both individually and in combination with standard of care and investigational anticancer small molecules within a complex spheroid model of solid tumors. . Complex spheroids include a stromal component modeled by human endothelial cells (HUVEC) and fibroblasts modeled by human mesenchymal stem cells (MSCs). The concentration ranges selected for each drug and investigational agent were based upon clinically achievable concentrations if the clinical Cmax of the agent was known.
Compounds. The drugs and investigational agents: novobiocin (NSC847541), ART-558 (NSC835418), RP-6685 (NSC848927), peposertib (NSC802822), ceralasertib (NSC780249), elimusertib (NSC800525), camonsertib (NSC841442), AZD-1390 (NSC803789), olaparib (NSC753686), talazoparib (NSC767125), rucaparib (NSC756644), sotorasib (NSC818433), MRTX-1133 (NSC836407), SN-38 (NSC673596), topotecan (NSC609699), epotoside (NSC141540), doxorubicin (NSC123127), gemcitabine (NSC613327), 5-fluorouracil (NSC19893), paclitaxel (NSC125973), vemurafenib (NSC761431), MSA-2 (NSC828583), SN-011 (NSC837082), adavosertib (NSC754352), prexasertib (NSC758257), carboplatin (NSC241240) and oxaliplatin (NSC266046), were obtained from the National Cancer Institute (NCI) Developmental Therapeutics Program Chemical Repository (21). The FDA-approved anticancer drug set is available from the Developmental Therapeutics Program at https://dtp.cancer.gov/organization/dscb/obtaining/. […] The stock solutions were prepared in dimethyl sulfoxide (DMSO, Sigma-Aldrich, St. Louis, MO, cat. D2650), except for the platinum compounds which were prepared in saline (Quality Biological, Gaithersburg, MD, cat. 114-055-101), at 800-fold the tested concentration and stored at -70 degrees C prior to their use. All drugs and investigational agents were tested over a range starting from a high concentration at or near the clinical Cmax and decreasing in half-log increments. If the clinical Cmax for an agent had not been determined, the highest concentration tested was 10 microM, except for SN-38, which was tested at a high concentration of 1 microM.
Cell Culture. All cells were maintained in an incubator at 37 degrees C and 5% CO2 with 95% humidity. The PDC lines were cultured according to standard operating procedures established by the NCI PDMR (https://pdmr.cancer.gov). Table 3 of the manuscript, lists the cell lines along with the number of the three cell types plated to form the mct-spheroids and media for tumor cell growth. After thawing, all PDC lines, except 997537-175-T-J1-PDC and 415267-285-R-J2-PDC, were cultured in Matrigel-coated flasks prepared with a working solution of 1X Ham's F-12 nutrient mix, without supplementation (Thermo Fisher Scientific, cat. 11765054), 100 U/mL penicillin-streptomycin (Thermo Fisher Scientific, cat. 15140122), and 2.5% Matrigel (Corning Inc., Corning, NY, cat. 354248) for the first three passages. The two PDC lines 997537-175-T-J1-PDC and 415267-285-R-J2-PDC were cultured on uncoated flasks. The 857933-349-R-J2-PDC line was cultured in 6C/Colon 1B media containing advanced DMEM/F-12 (Thermo Fisher Scientific, cat. 12634028), 10 mM HEPES (Thermo Fisher Scientific, cat. 15630080), 1X GlutaMAX supplement (Thermo Fisher Scientific, cat. 35050061), 0.1 mg/mL primocin (InvivoGen, San Diego, CA, cat. ant-pm-2), 10% defined fetal bovine serum, heat inactivated (HyClone Laboratories Inc., Logan, UT, cat. SH30070.03HI), 50% L-WRN conditioned media (ATCC, cat. CRL-3276), 1.25 mM N-Acetyl-L-cysteine (Sigma-Aldrich, cat. A9165), 10 mM nicotinamide (Sigma-Aldrich, cat. N0636), 1X B-27 supplement (Thermo Fisher Scientific, cat. 17504044), 1X N-2 supplement (Thermo Fisher Scientific, cat. […]

Where “and” joins values, the source holds several entries; their conditions need not be identical. Equal values may be shown once.
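Further: spheroids exposed to drugs for seven days before measurement.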
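Wherever viability, T/C is given: percent viability relative to DMSO vehicle control wells taken as 100%.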

By viability, T/C is commonly meant the result in the treated group divided by that in the control group, in per cent. The IC50 is the point on the concentration scale where inhibition reaches its midpoint. Consider `C#Cc1c(F)ccc2cc(O)cc(-c3ncc4c(N5CC6CCC(C5)N6)nc(OCC56CCCN5CC(F)C6)nc4c3F)c12` (stereo not drawn), for which the viability, T/C is, setting by setting: (compound 0.0316 µM) 57.4% and 52.2% and 68.6%; (compound 0.1 µM) 44.5% and 37.2% and 52.2%; (compound 0.316 µM) 32.2% and 26% and 35.8%; (compound 1 µM) 28.6% and 24.5% and 29.1%; (compound 3.16 µM) 23.6% and 21.5% and 29.5%; (compound 10 µM) 21.4% and 19.2% and 26.2%. In addition, where the note is “curve of compound”, the IC50 is 59.1 nM and 37.5 nM and 117 nM.
Consider `C=CC(=O)N1CCN(c2nc(=O)n(-c3c(C)ccnc3C(C)C)c3nc(-c4c(O)cccc4F)c(F)cc23)C(C)C1` (stereo not drawn), for which the viability, T/C was 109% (2×) and 106% (compound 0.0316 µM); 97% and 98.6% and 100% (compound 0.1 µM); 105% and 112% and 106% (compound 0.316 µM); 104% and 113% and 107% (compound 1 µM); 108% and 104% and 114% (compound 3.16 µM); 107% and 113% and 112% (compound 10 µM). Also, for the setting “curve of compound”, the half-maximal inhibitory concentration (IC50) was more than 10000 nM.
Regarding `CC(C)n1c(=O)n(C)c2cnc3cc(F)c(-c4ccc(OCCCN5CCCCC5)nc4)cc3c21`, the viability, T/C is 106% and 110% and 109% (compound 0.0316 µM); 96.6% and 98.5% and 110% (compound 0.1 µM); 107% and 110% and 113% (compound 0.316 µM); 109% and 97.5% and 118% (compound 1 µM); 98% and 97.2% and 102% (compound 3.16 µM); 81.2% and 84% and 89.7% (compound 10 µM). Also, the IC50 (curve of compound) is more than 10000 nM.
Consider `CC1COCCN1c1cc(C2(O)CC3CCC(C2)O3)c2cnn(-c3ccn[nH]3)c2n1` (stereo not drawn), for which the viability, T/C runs as follows: (compound 0.0316 µM) 100% and 99.2% and 87.4%; (compound 0.1 µM) 71.6% and 69.7% and 51.4%; (compound 0.316 µM) 29.2% and 34.4% and 21.1%; (compound 1 µM) 24.1% and 25.3% and 11.3%; (compound 3.16 µM) 23.8% and 24.9% and 15.1%; (compound 10 µM) 14.6% and 14.2% and 9.62%. In addition, the IC50 (curve of compound) is 181 nM and 194 nM and 106 nM.
Regarding `CCc1cc2c(N3CCc4c(cc(Cn5ccnc5)cc4-c4cn(C)nc4C(F)(F)F)C3=O)cc(C)nc2c(OC)n1`, the viability, T/C runs as follows: (compound 0.0316 µM) 110% and 99.6% and 98.9%; (compound 0.1 µM) 92% and 79.7% and 87.1%; (compound 0.316 µM) 88.2% and 81.7% and 79.3%; (compound 1 µM) 89.3% and 74.5% and 69.2%; (compound 3.16 µM) 87% and 76.7% and 72.6%; (compound 10 µM) 71.6% and 58.8% and 56.6%. The 50% inhibitory concentration (IC50) (curve of compound) is more than 10000 nM.
For the compound `CCc1cc2c(N3CCc4c(cc(Cn5ccnc5)cc4-c4cn(C)nc4C(F)(F)F)C3=O)ccnc2c(OC)n1`, the viability, T/C was 109% and 100% and 101% (compound 0.0316 µM); 95.6% and 93% and 84.3% (compound 0.1 µM); 98.7% and 82.7% and 86.3% (compound 0.316 µM); 87.5% and 83.7% and 77.2% (compound 1 µM); 89.3% and 71.8% and 72.8% (compound 3.16 µM); 68% and 70.2% and 53.9% (compound 10 µM). Further, the half-maximal inhibitory concentration (IC50) (curve of compound) was more than 10000 nM.
In the case of `COc1cc2cc(C(=O)CCC(=O)O)sc2cc1OC`, the viability, T/C is 101% and 105% (2×) (compound 0.0316 µM); 101% (2×) and 99.3% (compound 0.1 µM); 100% and 105% and 108% (compound 0.316 µM); 96.9% and 103% and 106% (compound 1 µM); 94.2% and 105% and 114% (compound 3.16 µM); 96.2% and 95.3% and 93.4% (compound 10 µM). Further, where the note is “curve of compound”, the IC50 is more than 10000 nM.
For the compound `O=C(Nc1ccc(O)c(NS(=O)(=O)c2ccc(F)cc2)c1)c1ccc(-c2ccccc2)cc1`, the viability, T/C was 103% and 108% and 98.8% (compound 0.0316 µM); 104% and 96.5% and 103% (compound 0.1 µM); 100% and 110% and 106% (compound 0.316 µM); 94% and 101% and 106% (compound 1 µM); 96.4% and 116% and 115% (compound 3.16 µM); 87.7% and 89.7% and 98% (compound 10 µM). Further, the IC50 (curve of compound) is more than 10000 nM.
Turning to `CC(=O)O[C@H]1C(=O)[C@@]2(C)[C@H]([C@H](OC(=O)c3ccccc3)[C@]3(O)C[C@H](OC(=O)[C@H](O)[C@@H](NC(=O)c4ccccc4)c4ccccc4)C(C)=C1C3(C)C)[C@]1(OC(C)=O)CO[C@@H]1C[C@@H]2O` + COC1C(OC(N)=O)C(O)C(Oc2ccc3c(O)c(NC(=O)c4ccc(O)c(CC=C(C)C)c4)c(=O)oc3c2C)OC1(C)C, the IC50 (curve of first compound, second compound 0.0316 µM) is less than 9.49 nM; the half-maximal inhibitory concentration (IC50) (curve of first compound, second compound 0.1 µM) was less than 9.49 nM; the concentration for half-maximal inhibition (IC50) (curve of first compound, second compound 0.316 µM) was less than 9.49 nM; the IC50 (curve of first compound, second compound 1 µM) is less than 9.49 nM; the IC50 (curve of first compound, second compound 3.16 µM) is less than 9.49 nM; the IC50 (curve of first compound, second compound 10 µM) is less than 9.49 nM. Moreover, the viability, T/C reads like this: (second compound 0.0316 µM, first compound 0.00949 µM) 11.9%; (second compound 0.0316 µM, first compound 0.03 µM) 7.88%; (second compound 0.0316 µM, first compound 0.0949 µM) 6.54%; (second compound 0.0316 µM, first compound 0.3 µM) 5.33%; (second compound 0.0316 µM, first compound 0.949 µM) 6.41%; (second compound 0.0316 µM, first compound 3 µM) 7.66%. For the same compound, the viability, T/C (second compound 0.1 µM, first compound 0.00949 µM) was 12.8%; the viability, T/C (second compound 0.1 µM, first compound 0.03 µM) is 5.37%; the viability, T/C (second compound 0.1 µM, first compound 0.0949 µM) was 5.19%; the viability, T/C (second compound 0.1 µM, first compound 0.3 µM) was 5.57%; the viability, T/C (second compound 0.1 µM, first compound 0.949 µM) is 5.27%; the viability, T/C (second compound 0.1 µM, first compound 3 µM) was 3.86%. In addition, the viability, T/C by setting is: (second compound 0.316 µM, first compound 0.00949 µM) 10.7%; (second compound 0.316 µM, first compound 0.03 µM) 5.28%; (second compound 0.316 µM, first compound 0.0949 µM) 6.4%; (second compound 0.316 µM, first compound 0.3 µM) 4.53%; (second compound 0.316 µM, first compound 0.949 µM) 6.27%; (second compound 0.316 µM, first compound 3 µM) 5.12%. The viability, T/C is, setting by setting: (second compound 1 µM, first compound 0.00949 µM) 13.2%; (second compound 1 µM, first compound 0.03 µM) 5.82%; (second compound 1 µM, first compound 0.0949 µM) 6.61%; (second compound 1 µM, first compound 0.3 µM) 5.98%; (second compound 1 µM, first compound 0.949 µM) 5.03%; (second compound 1 µM, first compound 3 µM) 5.86%. Moreover, the viability, T/C (second compound 3.16 µM, first compound 0.00949 µM) was 11.1%; the viability, T/C (second compound 3.16 µM, first compound 0.03 µM) is 7.33%; the viability, T/C (second compound 3.16 µM, first compound 0.0949 µM) is 4.63%; the viability, T/C (second compound 3.16 µM, first compound 0.3 µM) is 3.97%; the viability, T/C (second compound 3.16 µM, first compound 0.949 µM) was 3.87%; the viability, T/C (second compound 3.16 µM, first compound 3 µM) is 4.77%. The viability, T/C is 12.8% (second compound 10 µM, first compound 0.00949 µM); 4.79% (second compound 10 µM, first compound 0.03 µM); 7.63% (second compound 10 µM, first compound 0.0949 µM); 5.47% (second compound 10 µM, first compound 0.3 µM); 3.92% (second compound 10 µM, first compound 0.949 µM); 5.39% (second compound 10 µM, first compound 3 µM).
